“Also recorded” adds a separate entry of the source.
How the values were obtained:
P-glycoprotein = details: cited from earlier work
cells and mitochondria = details: cited from earlier work
mitochondrial function = details: typical loading activities; cited from earlier work
[1] = tested on: P-glycoprotein enriched membrane vesicles; details: multidrug resistant cell vesicles; cited from earlier work
[2] = whole body imaging agent; cited from earlier work
tumors = details: human, in vivo; cited from earlier work
V79 and LZ cells = experiment: Cell survival / cytotoxicity, V79 and LZ cells (sulforhodamine B); type: cell-based, hamster; details: 72 hours
Procedure: (§1) FIG. 5. Cell survival studies and LD50 determination showing cytotoxicity of a ^99 Tc-isonitrile complex that is transported by the P-glycoprotein in vitro. Survival of parental V79 and multidrug resistant LZ cells (A) and parental Alex and multidrug resistant Alex/A.5 cells (B) in increasing concentrations of carrier-added ^99 Tc-MIBI. Methods: Cell survival assays were performed by plating 4,000-20,000 cells per well in 96 well microtiter plates in triplicate in three separate experiments. V79 and LZ cells were grown essentially as described in Example 2 while Alex and Alex/A.5 were grown as described by Goldstein, L., et al., J. Natl. Cancer Inst. 81:116 (1989). Multidrug resistant cells were cultured in drug free media for 72-96 hours prior to culture in ^99 Tc-MIBI. Surviving cells were assayed by staining with sulforhodamine B (Mazzanti, R., et al., J. Cell Pharmacol. 1:50 (1990)) at 72 hours for V79 and LZ cells or 96 hours for Alex and Alex A.5 cells. Survival was expressed as the percentage of surviving cells relative to growth in alpha-MEM media without ^99 Tc-MIBI. […] LD50 determinations were obtained by interpolation from the cell survival curves.
(§2) Micromolar concentrations of carrier-added 99Tc-MIBI is shown to be cytotoxic in hamster lung fibroblast cells (A) and human carcinoma cells (B) (FIG. 5). […]

[3] = tested on: V79 cells (multidrug resistance P-glycoprotein)
Procedure: (§3) Accumulation of Tc-MIBI in LZ cells (highly expressing multidrug resistance) (0) and V79 cells (modestly expressing multidrug resistance) (.cndot.).
(§4) Cell-associated activity was then determined.

Alex and Alex/A.5 cells = experiment: Cell survival / cytotoxicity, Alex and Alex/A.5 cells (sulforhodamine B); type: cell-based, human
Procedure: as §1, §2

[4] = tested on: LZ cells (multidrug resistance P-glycoprotein)
Procedure: as §3, §4

Compound: C=C[C@H]1C[N@@]2CC[C@H]1C[C@@H]2[C@@H](O)c1ccnc2ccc(OC)cc12 [Quinidine]
- Inhibition of photoaffinity labeling of P-glycoprotein by vinblastine analog (P-glycoprotein): inhibited

Compound: COC(=O)c1ccccc1-c1c2ccc(=N)cc-2oc2cc(N)ccc12 [rhodamine 123]
- Toxicity to cells and mitochondria (cells and mitochondria): toxic to cells and mitochondria
- Toxic effects on mitochondrial function (mitochondrial function): toxic effects on mitochondrial function

Compound: CC[C@]1(O)C[C@@H]2CN(CCc3c([nH]c4ccccc34)[C@@](C(=O)OC)(c3cc4c(cc3OC)N(C)[C@H]3[C@@](O)(C(=O)OC)[C@H](OC(C)=O)[C@]5(CC)C=CCN6CC[C@]43[C@@H]65)C2)C1 [vinblastine]
- Inhibition of labeled vinblastine accumulation in vesicles [1]: inhibited

Compound: c1ccc([P+](c2ccccc2)(c2ccccc2)c2ccccc2)cc1 [TPP^+]
- Toxic effects on mitochondrial function (mitochondrial function): toxic effects on mitochondrial function

Compound: COc1cccc2c1C(=O)c1c(O)c3c(c(O)c1C2=O)C[C@@](O)(C(C)=O)C[C@@H]3O[C@H]1C[C@H](N)[C@H](O)[C@H](C)O1 [daunomycin]
- Inhibition of photoaffinity labeling of P-glycoprotein by vinblastine analog (P-glycoprotein): inhibited

Compound: [99Tc].[C-]#[N+]CC(C)(C)OC.[C-]#[N+]CC(C)(C)OC.[C-]#[N+]CC(C)(C)OC.[C-]#[N+]CC(C)(C)OC.[C-]#[N+]CC(C)(C)OC.[C-]#[N+]CC(C)(C)OC [Tc-MIBI, hexakis (2-methoxyisobutyl isonitrile) technetium-99m (I)]
- Toxic activity at imaging doses [2]: no toxic activity; also recorded: without chemotoxic effects
- Uptake within known bronchial carcinomas (tumors): uptake
- Uptake within mediastinal and pulmonary metastasis from thyroid cancer (tumors): uptake
- Uptake within untreated malignant lung lesions (tumors): uptake
- Toxicity in drug-sensitive V79 compared to multidrug-resistant derivative (LZ) (V79 and LZ cells; V79 vs LZ): 11 fold
- Cytotoxicity in hamster lung fibroblast cells (V79 and LZ cells; micromolar concentrations, carrier-added): cytotoxic
- Plateau net accumulation in V79 cells relative to LZ cells [3]: 20 fold
- Toxicity in drug-sensitive human Alexander cells compared to multidrug-resistant derivative (Alex/A.5) (Alex and Alex/A.5 cells; Alex vs Alex/A.5, 96 hours): 13 fold
- Cytotoxicity in human carcinoma cells (Alex and Alex/A.5 cells; micromolar concentrations, carrier-added, 96 hours): cytotoxic
- Net accumulation of Tc-MIBI [4]: 0.3 fmoles Tc-MIBI/mg protein per nmolar extracellular Tc-MIBI

Compound: COC(=O)[C@H]1[C@H]2C[C@@H]3c4[nH]c5cc(OC)ccc5c4CCN3C[C@H]2C[C@@H](OC(=O)c2cc(OC)c(OC)c(OC)c2)[C@@H]1OC [reserpine]
- Inhibition of photoaffinity labeling of P-glycoprotein by vinblastine analog (P-glycoprotein): inhibited

Compound: CCOC(=O)C1=C(C)NC(C)=C(C(=O)OCCNC(=O)c2ccc(N=[N+]=[N-])cc2)C1c1ccccc1C(F)(F)F (centres unmarked) [azidopine]
- Inhibition of photoaffinity labeling of P-glycoprotein by vinblastine analog (P-glycoprotein): inhibited

Compound: CC[C@]1(O)C[C@H]2CN(CCc3c([nH]c4ccccc34)[C@@](C(=O)OC)(c3cc4c(cc3OC)N(C=O)[C@H]3[C@@](O)(C(=O)OC)[C@H](OC(C)=O)[C@]5(CC)C=CCN6CC[C@]43[C@@H]65)C2)C1 [vincristine]
- Inhibition of photoaffinity labeling of P-glycoprotein by vinblastine analog (P-glycoprotein): inhibited
- Inhibition of labeled vinblastine accumulation in vesicles [1]: inhibited

— patent publication US5403574A, “Evaluation and treatment of the multidrug resistance phenotype” (priority 1992, dated 1995)
